The series in a line: Solubility of MGBG salts. Format: physicochemical. The text has this: It is necessary to administer MGBG in a salt form to assure solubility of drug in the administration of fluid such as 5% (w/v) dextrose in water. […] Available MGBG-salt complexes include but are not limited to the dihydrochloride (NSC-32946) and the diacetate (NSC-30689).

For `CC(C=NNC(=N)N)=NNC(=N)N`, the “solubility relative to dihydrochloride or diacetate salts” value is listed as “not as soluble as the dihydrochloride or diacetate salts”.

For the origin of these results see US4520031A, “Method for reducing toxic effects of methyl-glyoxal bis-guanylhydrazone” (priority 1982, dated 1985).
